Test results as given in patent publication US7026134B2 (priority 2001, dated 2006).
In brackets after ≈: the same amount, converted by molar mass. Where two headings read alike, the source gives them in different places.

Experiments:
[1] = tested on: IgG fraction of the antiserum raised to immunogen B (hapten B-BSA); assay type: binding, sheep; details: for IC50, OP: concentration of test opiate that causes 50% displacement of signal, Table 3, Example 13 (b); for IC50: standard concentration which produces 50% B/B0
[2] = tested on: IgG fraction of the antiserum raised to immunogen A (hapten A-BSA); assay type: binding, sheep; details: for IC50, OP: concentration of test opiate that causes 50% displacement of signal, Table 3, Example 13 (a); for IC50: standard concentration which produces 50% B/B0
Procedure: Aqueous solutions of the immunogens prepared in Examples 7 and 8 were formulated with Freund's Complete Adjuvant (FCA) to form emulsions consisting of 4 mg/ml immunogen A and 2 mg/ml immunogen B in 50% (v/v) FCA. Three sheep were immunized with each emulsion (1° immunizations), 0.25 ml being subcutaneously injected at each of four sites in the flank of each animal. The next immunizations (first boosts) contained 2 mg/ml immunogen A and 1 mg/ml immunogen B. Subsequent immunizations (boosts […]) contained 1 mg/ml of each immunogen. All boosts were emulsified in 50% (v/v) Freund's Incomplete Adjuvant (FIA) and administered to the appropriate sheep in the same manner as the 1° immunizations, at monthly intervals for 1 year. Blood sampling took place 7 to 14 days after each boost. Each sample was processed to produce antiserum which was further purified by caprylic acid and ammonium sulfate precipitation to yield an immunoglobulin G (IgG) fraction. The IgG fraction was evaluated by competitive ELISA microtiter plate assay, as described in Example 12 below.
(a) The wells of an enhanced binding 96-well polystyrene microtiter plate were coated with the IgG fraction of the antiserum raised to immunogen A (hapten A-BSA) (Example 7), diluted in 10 mM Tris, pH8.5 (125 μl/well). The appropriate antibody coating dilution was determined using standard ELISA chequerboard techniques. The plate was incubated for 2 hours at 37° C., washed 4 times with Tris-buffered saline containing Tween 20 (TBST) and tapped dry. […] 75 μl of conjugate A (hapten A-HRP) (Example 10), diluted in Tris buffer containing EDTA, D-mannitol, sucrose, thimerosal and BSA, was added to each of the wells. The appropriate dilution of conjugate was also determined using standard ELISA chequerboard techniques. The plate was incubated at 37° C. for 2 hours. The excess unbound conjugate was removed by washing 6 times over a 10 minute period with TBST. 125 μl of tetramethylbenzedine (TMB) substrate solution was added to each well of the plate that was then incubated for 15 to 20 minutes in the dark at room temperature. The reaction was terminated by addition of 125 μl 0.2M H2SO4 to each well. The absorbance was then measured at 450 nm using a microtiter plate reader.

[3] = percentage cross-reactivity based on specificity to oxycodone, Table 2
[4] = standard concentration 10 ng/ml
[5] = standard concentration 50 ng/ml
[6] = standard concentration 100 ng/ml
[7] = standard concentration 500 ng/ml
[8] = standard concentration 1000 ng/ml
[9] = standard concentration 2000 ng/ml
[10] = percentage cross-reactivity based on specificity to oxycodone, Table 1
[11] = standard concentration 0.5 ng/ml
[12] = standard concentration 25 ng/ml
[13] = standard concentration 250 ng/ml

SMILES	% CR [1] [%]	IC50, OP [1] [µg/mL]	% CR [2] [%]	IC50, OP [2] [µg/mL]	% CR [1, 3] [%]	% B/B0 [1, 4] [%]	% B/B0 [1, 5] [%]	% B/B0 [1, 6] [%]	% B/B0 [1, 7] [%]	% B/B0 [1, 8] [%]	% B/B0 [1, 9] [%]	% CR [2, 10] [%]	% B/B0 [2, 11] [%]	% B/B0 ([2]; standard concentration 1 ng/ml) [%]	% B/B0 [2, 12] [%]	% B/B0 [2, 6] [%]	% B/B0 [2, 13] [%]	% B/B0 [2, 7] [%]	IC50 ([2]; Table 1) [µg/mL]	other results
CN1CC[C@]23c4c5ccc(O[C@@H]6O[C@H](C(=O)O)[C@@H](O)[C@H](O)[C@H]6O)c4O[C@H]2[C@@H](O)C=C[C@H]3[C@H]1C5 [Morphine-3-glucuronide]	<2.7	>2	<1.7	>0.5	–	–	–	–	–	–	–	–	–	–	–	–	–	–	–	–
COc1ccc2c3c1O[C@H]1C(=O)CC[C@@]4(O)[C@@H](C2)N(C)CC[C@]314 [Oxycodone]	–	–	–	–	100.0	75.7	50.1	41.9	17.8	12.2	8.3	100.0	88.6	82.2	36.1	22.2	14.8	10.1	0.0087 (≈ 0.0276 µM)	–
COC1=CC=C2[C@H]3Cc4ccc(OC)c5c4[C@@]2(CCN3C)[C@H]1O5 [Thebaine]	<2.7	>2	4.3	0.2032 (≈ 0.653 µM)	–	–	–	–	–	–	–	–	–	–	–	–	–	–	–	–
COc1ccc2c3c1O[C@H]1[C@@H](O)C=C[C@H]4[C@@H](C2)N(C)CC[C@@]341 [Codeine]	<2.7	>2	2.2	0.3867 (≈ 1.29 µM)	–	–	–	–	–	–	–	–	–	–	–	–	–	–	–	–
COc1ccc2c3c1O[C@H]1[C@@H](O)CC[C@H]4[C@@H](C2)N(C)CC[C@@]341 [Dihydrocodone]	<2.7	>2	<1.7	>0.5	–	–	–	–	–	–	–	–	–	–	–	–	–	–	–	–
COc1ccc2c3c1O[C@H]1C(=O)CC[C@@]4(O)[C@@H](C2)NCC[C@]314 [Noroxycodone]	–	–	–	–	23.4	90.7	70.9	65.0	43.7	32.5	24.4	<1.7	99.3	100.2	99.3	97.7	96.1	92.8	>0.5	% B/B0 [1, 13]: 52.0%; IC50 ([1]; Table 2): 0.2335 µg/mL (≈ 0.775 µM); % B/B0 ([2]; standard concentration 5 ng/ml): 100.3%
CN1CC[C@]23c4c5ccc(O)c4O[C@H]2[C@@H](O)C=C[C@H]3[C@H]1C5 [Morphine]	<2.7	–	<1.7	–	–	–	–	–	–	–	–	–	–	–	–	–	–	–	–	–
CN1CC[C@]23c4c5ccc(O)c4O[C@H]2C(=O)CC[C@@]3(O)[C@H]1C5 [Oxymorphone]	–	–	–	–	<2.7	103.8	97.3	95.0	90.1	84.2	76.7	26.5	93.0	90.5	57.1	39.2	29.2	24.4	0.0328 (≈ 0.109 µM)	% B/B0 [1, 13]: 93.5%; IC50 ([1]; Table 2): >2 µg/mL; % B/B0 ([2]; standard concentration 5 ng/ml): 75.1%
COc1ccc2c3c1O[C@H]1C(=O)CC[C@H]4[C@@H](C2)N(C)CC[C@]314 [Hydrocodone]	75.6	0.0724 (≈ 0.242 µM)	<1.7	>0.5	–	–	–	–	–	–	–	–	–	–	–	–	–	–	–	–
